# Source: patent US20100061928A1, “LABELLED ANALOGUES OF HALOBENZAMIDES AS RADIOPHARMACEUTICALS” (Institut National De La Sante et De La Recherche Medicale …, priority 2006, published 2010)
# Counter-ions that a name gives are not always drawn.
# Assays:
# [1] = Elimination of the molecules: cumulative urinary and faecal excretion 0-72 hours; format: in vivo, mouse; conditions: for Faecal elimination 0-72 hours (Faeces) / Urinary and faecal elimination 0-72 hours (Total) / Urinary elimination 0-72 hours (Urine): cumulative excretion 0-72 hours; for Faecal elimination 0-72 hours (Faeces) / Urinary elimination 0-72 hours (Urine): mice in metabolic cages; for Urinary and faecal elimination 0-72 hours (Total): urine + faeces; for elimination kinetics from the body (in words): urine and faeces, up to 72 hours
# [2] = test system: grafted B16 F0 murine melanoma tumour; experiment: Biodistribution of the ^125I-labelled molecules in the melanoma-bearing mouse (autoradiography of whole-body sections)
# tumour = experiment: Dosimetry with regard to the tumour (MIRD programme, extrapolated to ^131I); conditions: for Effective period: extrapolated to 131I labelling; for Biological period: from biodistribution data
# [3] = 1 H after i.v. administration, ^125I-labelled compound
# [4] = 3 H after i.v. administration, ^125I-labelled compound
# [5] = 6 H after i.v. administration, ^125I-labelled compound
# [6] = 24 H after i.v. administration, ^125I-labelled compound
# [7] = 72 H after i.v. administration, ^125I-labelled compound
smiles,measurement,setting,value
"CCN(CC)CCNC(=O)c1cc2c(I)cccc2s1.Cl [compound 13, N-(2-diethylaminoethyl)-4-iodobenzo[b]thiophene-2-carboxamide hydrochloride]",Faecal elimination 0-72 hours (Faeces),[1],46.7%
same,Urinary and faecal elimination 0-72 hours (Total),[1],99.3%
same,Urinary elimination 0-72 hours (Urine),[1],52.6%
same,elimination route (in words),"[1]; urinary versus faecal, 0-72 hours",about equivalent
same,elimination kinetics from the body (in words),[1],complete at 72 hours
same,"Concentration of radioactivity, Ic (intestinal contents), Mean",[2]; [3],71.13 % ID/g
same,"Concentration of radioactivity, Sc (stomach contents), Mean",[2]; [3],20.00 % ID/g
same,"Concentration of radioactivity, blood (measured in the heart cavity), Mean",[2]; [3],1.37 % ID/g
same,"Concentration of radioactivity, brain, Mean",[2]; [3],0.81 % ID/g
same,"Concentration of radioactivity, kidney, Mean",[2]; [3],5.61 % ID/g
same,"Concentration of radioactivity, liver, Mean",[2]; [3],2.21 % ID/g
same,"Concentration of radioactivity, lungs, Mean",[2]; [3],3.69 % ID/g
same,"Concentration of radioactivity, muscle (skeletal muscle), Mean",[2]; [3],0.77 % ID/g
same,"Concentration of radioactivity, spleen, Mean",[2]; [3],3.88 % ID/g
same,"Concentration of radioactivity, thyroid, Mean",[2]; [3],24.03 % ID/g
same,"Concentration of radioactivity, uvea (pigmented tissues of the eye), Mean",[2]; [3],16.09 % ID/g
same,"Concentration of radioactivity, B 16 (tumour), Mean",[2]; [4],9.98 % ID/g
same,"Concentration of radioactivity, GB (gall bladder), Mean",[2]; [4],65.56 % ID/g
same,"Concentration of radioactivity, Ic (intestinal contents), Mean",[2]; [4],73.02 % ID/g
same,"Concentration of radioactivity, Sc (stomach contents), Mean",[2]; [4],5.93 % ID/g
same,"Concentration of radioactivity, liver, Mean",[2]; [4],1.25 % ID/g
same,"Concentration of radioactivity, thyroid, Mean",[2]; [4],67.21 % ID/g
same,"Concentration of radioactivity, uvea (pigmented tissues of the eye), Mean",[2]; [4],19.51 % ID/g
same,"Concentration of radioactivity, B 16 (tumour), Mean",[2]; [5],8.72 % ID/g
same,"Concentration of radioactivity, Ic (intestinal contents), Mean",[2]; [5],37.70 % ID/g
same,"Concentration of radioactivity, Sc (stomach contents), Mean",[2]; [5],18.77 % ID/g
same,"Concentration of radioactivity, thyroid, Mean",[2]; [5],139.12 % ID/g
same,"Concentration of radioactivity, uvea (pigmented tissues of the eye), Mean",[2]; [5],16.29 % ID/g
same,"Concentration of radioactivity, B 16 (tumour), Mean",[2]; [6],7.28 % ID/g
same,"Concentration of radioactivity, thyroid, Mean",[2]; [6],79.82 % ID/g
same,"Concentration of radioactivity, uvea (pigmented tissues of the eye), Mean",[2]; [6],11.06 % ID/g
same,"Concentration of radioactivity, B 16 (tumour), Mean",[2]; [7],1.73 % ID/g
same,"Concentration of radioactivity, uvea (pigmented tissues of the eye), Mean",[2]; [7],9.22 % ID/g
same,Effective period,tumour,23.5 h
same,Biological period,tumour,26.7 hours
"CCN(CC)CCNC(=O)c1nc2ccccn2c1I [compound 16, N-(2-diethylaminoethyl)-3-iodoimidazo[1,2-a]pyridine-2-carboxamide dihydrochloride]",Faecal elimination 0-72 hours (Faeces),[1],24.0%
same,Urinary and faecal elimination 0-72 hours (Total),[1],76.6%
same,Urinary elimination 0-72 hours (Urine),[1],52.6%
same,"Concentration of radioactivity, B 16 (tumour), Mean",[2]; [3],2.96 % ID/g
same,"Concentration of radioactivity, Ic (intestinal contents), Mean",[2]; [3],58.60 % ID/g
same,"Concentration of radioactivity, Sc (stomach contents), Mean",[2]; [3],24.51 % ID/g
same,"Concentration of radioactivity, blood (measured in the heart cavity), Mean",[2]; [3],2.20 % ID/g
same,"Concentration of radioactivity, brain, Mean",[2]; [3],0.33 % ID/g
same,"Concentration of radioactivity, kidney, Mean",[2]; [3],7.12 % ID/g
same,"Concentration of radioactivity, liver, Mean",[2]; [3],4.86 % ID/g
same,"Concentration of radioactivity, lungs, Mean",[2]; [3],6.48 % ID/g
same,"Concentration of radioactivity, muscle (skeletal muscle), Mean",[2]; [3],1.10 % ID/g
same,"Concentration of radioactivity, spleen, Mean",[2]; [3],8.16 % ID/g
same,"Concentration of radioactivity, uvea (pigmented tissues of the eye), Mean",[2]; [3],28.30 % ID/g
same,"Concentration of radioactivity, B 16 (tumour), Mean",[2]; [4],5.40 % ID/g
same,"Concentration of radioactivity, Ic (intestinal contents), Mean",[2]; [4],52.06 % ID/g
same,"Concentration of radioactivity, Sc (stomach contents), Mean",[2]; [4],30.71 % ID/g
same,"Concentration of radioactivity, blood (measured in the heart cavity), Mean",[2]; [4],3.93 % ID/g
same,"Concentration of radioactivity, brain, Mean",[2]; [4],0.36 % ID/g
same,"Concentration of radioactivity, kidney, Mean",[2]; [4],5.04 % ID/g
same,"Concentration of radioactivity, liver, Mean",[2]; [4],2.56 % ID/g
same,"Concentration of radioactivity, lungs, Mean",[2]; [4],3.38 % ID/g
same,"Concentration of radioactivity, muscle (skeletal muscle), Mean",[2]; [4],1.30 % ID/g
same,"Concentration of radioactivity, spleen, Mean",[2]; [4],12.67 % ID/g
same,"Concentration of radioactivity, uvea (pigmented tissues of the eye), Mean",[2]; [4],16.60 % ID/g
same,"Concentration of radioactivity, B 16 (tumour), Mean",[2]; [5],9.87 % ID/g
same,"Concentration of radioactivity, Ic (intestinal contents), Mean",[2]; [5],26.14 % ID/g
same,"Concentration of radioactivity, Sc (stomach contents), Mean",[2]; [5],48.21 % ID/g
same,"Concentration of radioactivity, brain, Mean",[2]; [5],0.65 % ID/g
same,"Concentration of radioactivity, kidney, Mean",[2]; [5],4.47 % ID/g
same,"Concentration of radioactivity, lungs, Mean",[2]; [5],4.56 % ID/g
same,"Concentration of radioactivity, uvea (pigmented tissues of the eye), Mean",[2]; [5],22.16 % ID/g
same,"Concentration of radioactivity, B 16 (tumour), Mean",[2]; [6],5.22 % ID/g
same,"Concentration of radioactivity, uvea (pigmented tissues of the eye), Mean",[2]; [6],11.17 % ID/g
same,"Concentration of radioactivity, Sc (stomach contents), Mean",[2]; [7],3.42 % ID/g
same,"Concentration of radioactivity, uvea (pigmented tissues of the eye), Mean",[2]; [7],2.41 % ID/g
same,Effective period,tumour,7.5 h
same,Biological period,tumour,7.8 hours
"CCN(CC)CCNC(=O)c1nc2ccc(I)cc2[nH]1.Cl.Cl [compound 26, N-(2-diethylaminoethyl)-5-iodobenzimidazole-2-carboxamide dihydrochloride]",Faecal elimination 0-72 hours (Faeces),[1],40.7%
same,Urinary and faecal elimination 0-72 hours (Total),[1],57.8%
same,Urinary elimination 0-72 hours (Urine),[1],17.1%
same,elimination kinetics from the body (in words),[1],lower elimination
same,"Concentration of radioactivity, B 16 (tumour), Mean",[2]; [3],14.78 % ID/g
same,"Concentration of radioactivity, Ic (intestinal contents), Mean",[2]; [3],105.55 % ID/g
same,"Concentration of radioactivity, Sc (stomach contents), Mean",[2]; [3],24.46 % ID/g
same,"Concentration of radioactivity, blood (measured in the heart cavity), Mean",[2]; [3],3.31 % ID/g
same,"Concentration of radioactivity, kidney, Mean",[2]; [3],6.90 % ID/g
same,"Concentration of radioactivity, liver, Mean",[2]; [3],13.08 % ID/g
same,"Concentration of radioactivity, lungs, Mean",[2]; [3],5.16 % ID/g
same,"Concentration of radioactivity, muscle (skeletal muscle), Mean",[2]; [3],0.55 % ID/g
same,"Concentration of radioactivity, pancreas, Mean",[2]; [3],6.17 % ID/g
same,"Concentration of radioactivity, spleen, Mean",[2]; [3],11.51 % ID/g
same,"Concentration of radioactivity, uvea (pigmented tissues of the eye), Mean",[2]; [3],12.87 % ID/g
same,"Concentration of radioactivity, B 16 (tumour), Mean",[2]; [4],16.13 % ID/g
same,"Concentration of radioactivity, GB (gall bladder), Mean",[2]; [4],160.60 % ID/g
same,"Concentration of radioactivity, Ic (intestinal contents), Mean",[2]; [4],72.05 % ID/g
same,"Concentration of radioactivity, Sc (stomach contents), Mean",[2]; [4],17.98 % ID/g
same,"Concentration of radioactivity, blood (measured in the heart cavity), Mean",[2]; [4],1.33 % ID/g
same,"Concentration of radioactivity, kidney, Mean",[2]; [4],4.57 % ID/g
same,"Concentration of radioactivity, liver, Mean",[2]; [4],7.15 % ID/g
same,"Concentration of radioactivity, lungs, Mean",[2]; [4],3.74 % ID/g
same,"Concentration of radioactivity, thyroid, Mean",[2]; [4],63.44 % ID/g
same,"Concentration of radioactivity, uvea (pigmented tissues of the eye), Mean",[2]; [4],24.40 % ID/g
same,"Concentration of radioactivity, B 16 (tumour), Mean",[2]; [5],9.90 % ID/g
same,"Concentration of radioactivity, GB (gall bladder), Mean",[2]; [5],38.11 % ID/g
same,"Concentration of radioactivity, Ic (intestinal contents), Mean",[2]; [5],95.86 % ID/g
same,"Concentration of radioactivity, Sc (stomach contents), Mean",[2]; [5],8.62 % ID/g
same,"Concentration of radioactivity, liver, Mean",[2]; [5],3.38 % ID/g
same,"Concentration of radioactivity, spleen, Mean",[2]; [5],14.97 % ID/g
same,"Concentration of radioactivity, thyroid, Mean",[2]; [5],34.17 % ID/g
same,"Concentration of radioactivity, uvea (pigmented tissues of the eye), Mean",[2]; [5],10.09 % ID/g
same,"Concentration of radioactivity, B 16 (tumour), Mean",[2]; [6],7.06 % ID/g
same,"Concentration of radioactivity, Ic (intestinal contents), Mean",[2]; [6],3.19 % ID/g
same,"Concentration of radioactivity, Sc (stomach contents), Mean",[2]; [6],2.32 % ID/g
same,"Concentration of radioactivity, thyroid, Mean",[2]; [6],142.88 % ID/g
same,"Concentration of radioactivity, uvea (pigmented tissues of the eye), Mean",[2]; [6],10.44 % ID/g
same,"Concentration of radioactivity, B 16 (tumour), Mean",[2]; [7],4.54 % ID/g
same,"Concentration of radioactivity, thyroid, Mean",[2]; [7],174.73 % ID/g
same,"Concentration of radioactivity, uvea (pigmented tissues of the eye), Mean",[2]; [7],7.26 % ID/g
same,"tumour concentration, times higher than with BZA",[2]; at 72 hours (FIG. 1B),6 times
same,"tumour concentration, % of the injected dose per gram of tumour",[2]; from the first hour,14.8 % ID/g
same,Effective period,tumour,35.1 h
same,Biological period,tumour,42.9 hours
